For 11 compounds, Emax and EC50 results are on record in patent publication US6610883B1, “Compounds having selective activity for retinoid X receptors, and means for modulation of processes mediated by retinoid X receptors” (Ligand Pharmaceuticals, Inc., priority 1992, dated 2003).

Common to all, as to assay type: cell-based
The target of one experiment is T1, RXRα (Homo sapiens, UniProt P19793).
T1 construct: The first plasmid contains a retinoid receptor cDNA and directs constitutive expression of the encoded receptor; expressed in transfected cells; host or cells: CV-1 (monkey kidney)
T1 sequence (P19793 1-462): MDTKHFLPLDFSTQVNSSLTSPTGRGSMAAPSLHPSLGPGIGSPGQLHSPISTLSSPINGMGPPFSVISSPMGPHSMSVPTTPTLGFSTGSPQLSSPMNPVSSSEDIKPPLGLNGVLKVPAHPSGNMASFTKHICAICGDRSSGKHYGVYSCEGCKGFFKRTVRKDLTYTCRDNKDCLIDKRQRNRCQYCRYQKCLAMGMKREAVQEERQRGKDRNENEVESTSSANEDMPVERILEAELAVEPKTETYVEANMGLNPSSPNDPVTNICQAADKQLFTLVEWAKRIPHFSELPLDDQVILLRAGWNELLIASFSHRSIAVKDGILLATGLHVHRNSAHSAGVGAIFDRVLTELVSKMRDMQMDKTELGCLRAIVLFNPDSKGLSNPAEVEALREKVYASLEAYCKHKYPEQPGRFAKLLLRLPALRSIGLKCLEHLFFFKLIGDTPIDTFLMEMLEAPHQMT
Kind of experiment: Co-transfection (cis-trans) assay in CV-1 cells, RXRα. The arrangement: Emax: dose or concentration left out as unconfirmed. As to conditions: for Emax at 10 µM: CV-1, maximal response relative to all-trans-retinoic acid at 10^−5 M, read-out: Efficacy. The text has this: (§1) The co-transfection assay provides a mechanism to evaluate the ability of a compound to modulate the transcription response initiated by an intracellular receptor. […] Berger, et al., J. Steroid Biochem Molec.
(§2) Briefly, the co-transfection assay involves the introduction of two plasmids by transient transfection into a retinoid receptor-negative mammalian cell background. The first plasmid contains a retinoid receptor cDNA and directs constitutive expression of the encoded receptor. The second plasmid contains a cDNA that encodes for a readily quantifiable protein, e.g., firefly luciferase or chloramphenicol acetyl transferase (CAT), under control of a promoter containing a retinoid acid response element, which confers retinoid dependence on the transcription of the reporter. In this co-transfection assay, all retinoid receptors respond to all-trans-retinoic acid in a similar fashion. This assay can be used to accurately measure efficacy and potency of retinoic acid and synthetic retinoids as ligands that interact with the individual retinoid receptor subtypes.
(§3) Accordingly, synthetic retinoid compounds of the current invention were evaluated for their interaction with retinoid receptor subtypes using the co-transfection assay in which CV-1 cells were co-transfected with one of the retinoid receptor subtypes, a reporter construct, and an internal control to allow normalization of the response for transfection efficiency. The following example is illustrative.
(§4) Retinoids: All-tans-retinoic acid (RA) and 13-cis-retinoic acid (13-cis-RA) were obtained from Sigma. […] Retinoids were dissolved in dimethylsulfoxide for use in the transcriptional activation assays.
(§5) Co-transfection Assay In CV-1 Cells: A monkey kidney cell line, CV-1, was used in the cis-trans assay. Cells were transfected with two plasmids. […] The cis-vector contains an easily assayable gene product, in this case the firefly luciferase, coupled to a retinoid-responsive promoter, i.e., an RARE or RXRE. Addition of retinoic acid or an appropriate synthetic retinoid results in the formation of a retinoid-RAR or -RXR complex that activates the expression of luciferase gene, causing light to be emitted from cell extracts. The level of luciferase activity is directly proportional to the effectiveness of the retinoid-receptor complex in activating gene expression. This sensitive and reproducible co-transfection approach permits the identification of retinoids that interact with the different receptor isoforms.
(§6) Cells were cultured in DMEM supplemented with 10% charcoal resin-stripped fetal bovine serum, and experiments were conducted in 96-well plates. […] Cells were transfected for 6 h and then washed to remove the precipitate. The cells were then incubated for 36 h with or without retinoid. After the transfection, all subsequent steps were performed on a Beckman Biomek Automated Workstation. […] All determinations were performed in triplicate in two independent experiments and were normalized for transfection efficiency by using β-galactosidase as the internal control. […] Efficacy values less than 5% are not statistically different than the 0% background.

Another experiment has as its target T2, RXRβ (Mus musculus, UniProt P28704).
T2 construct: expressed in transfected cells; host or cells: CV-1 (monkey kidney)
T2 sequence (P28704 1-520): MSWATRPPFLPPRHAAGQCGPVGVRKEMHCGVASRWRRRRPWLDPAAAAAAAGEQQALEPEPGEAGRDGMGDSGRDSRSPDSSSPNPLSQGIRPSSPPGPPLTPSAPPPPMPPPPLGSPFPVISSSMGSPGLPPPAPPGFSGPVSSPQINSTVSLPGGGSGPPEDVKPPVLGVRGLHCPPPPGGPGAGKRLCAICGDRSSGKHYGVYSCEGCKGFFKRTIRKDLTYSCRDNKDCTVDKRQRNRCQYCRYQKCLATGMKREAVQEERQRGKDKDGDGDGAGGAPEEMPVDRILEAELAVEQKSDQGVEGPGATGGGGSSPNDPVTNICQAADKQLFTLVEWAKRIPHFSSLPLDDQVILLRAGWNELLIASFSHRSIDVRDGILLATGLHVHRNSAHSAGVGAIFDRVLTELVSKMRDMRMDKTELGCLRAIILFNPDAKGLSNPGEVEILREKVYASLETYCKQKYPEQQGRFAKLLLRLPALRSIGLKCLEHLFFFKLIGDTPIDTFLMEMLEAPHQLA
Kind of experiment: Co-transfection (cis-trans) assay in CV-1 cells, RXRβ. As to conditions: for Emax at 10 µM: CV-1, maximal response relative to all-trans-retinoic acid at 10^−5 M, read-out: Efficacy.
From the text: as §1, §2, §3, §4, §5, §6

The target of a further experiment is T3, RARβ (Homo sapiens, UniProt P10826).
T3 sequence (P10826 1-455): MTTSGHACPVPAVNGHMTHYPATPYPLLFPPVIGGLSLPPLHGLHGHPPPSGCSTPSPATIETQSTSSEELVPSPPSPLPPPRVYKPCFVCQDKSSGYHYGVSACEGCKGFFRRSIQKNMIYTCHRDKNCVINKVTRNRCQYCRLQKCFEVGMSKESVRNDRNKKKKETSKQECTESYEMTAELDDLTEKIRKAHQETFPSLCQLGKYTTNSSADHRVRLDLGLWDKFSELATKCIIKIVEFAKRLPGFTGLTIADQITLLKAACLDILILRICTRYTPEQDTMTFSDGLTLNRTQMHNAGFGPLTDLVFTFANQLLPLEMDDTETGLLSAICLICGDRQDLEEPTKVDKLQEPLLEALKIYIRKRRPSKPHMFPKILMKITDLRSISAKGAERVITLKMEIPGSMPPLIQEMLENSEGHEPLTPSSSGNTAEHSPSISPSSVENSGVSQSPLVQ
Kind of experiment: Co-transfection (cis-trans) assay in CV-1 cells, RARβ. The arrangement: expressed in transfected cells; host or cells: CV-1 (monkey kidney). To be noted: for Emax at 10 µM: CV-1, maximal response relative to all-trans-retinoic acid at 10^−5 M, read-out: Efficacy; for pEC50: CV-1 cells, luciferase reporter, 36 h, read-out: Potency.
From the text: as §1, §2, §3, §4, §5, §6
Background: Reporter assays use an easily measured gene product as a stand-in for the process of interest.

The mark [1] stands for this setting: RXRα, CV-1 cells, luciferase reporter, 36 h, read-out: Potency.
Setting [2] is: RXRβ, CV-1 cells, luciferase reporter, 36 h, read-out: Potency.

Structures are written as SMILES. pEC50: −log10 of the molar value. Where two headings read alike, the source gives them in different places.

Regarding `CC1=C(C=CC2CCCCC2/C=C/C(C)=C/C(=O)O)C(C)(C)CCC1` (stereo not shown) [Compound 100, 3-methyl-5-(2-[2-(2,6,6-trimethylcyclohexen-1-yl)ethenyl]cyclohexyl)-2E,4E-pentadienoic acid], the results for the Emax at 10 µM on RXRα (RXRα), at RXRβ (RXRβ) and on RARβ were 63%, 54% and 5%, respectively. The pEC50 at RXRα (setting [1]) is 6.91; at RXRβ (setting [2]), 7.15; at RARβ it was below 5.00.
For `C/C(=C/C=C/C(C)=C/C(=O)O)c1cc2c(cc1C)C(C)(C)CCC2(C)C` [Compound 128, (2E,4E,6Z)-7-(3,5,5,8,8-pentamethyl-5,6,7,8-tetrahydro-2-naphthyl)-3-methyl-octa-2,4,6-trienoic acid], the values for the Emax at 10 µM on RXRα (RXRα), on RXRβ (RXRβ) and on RARβ were 108%, 154% and 40%, respectively. Moreover, the pEC50 at RXRα (setting [1]) was 7.96; on RXRβ (setting [2]) it was 7.66; on RARβ, 6.74.
Consider `CCCC(=C/C=C/C(C)=C/C(=O)O)/C=C/C1=C(C)CCCC1(C)C` [Compound 74, 3-methyl-7-propyl-9-(2,6,6-trimethyl-1-cyclohexen-1-yl)-2E,4E,6Z,8E-nonatetranoic acid], for which the figures for the Emax at 10 µM on RXRα (RXRα), at RXRβ (RXRβ) and at RARβ were 78%, 91% and 50%, respectively. For the same compound, the pEC50 at RXRα (setting [1]) is 7.96; on RXRβ (setting [2]) it was 8.22; at RARβ, 7.42.
On to `CC1=C(/C=C/C(=C\C=C\C(C)=C\C(=O)O)C(C)(C)C)C(C)(C)CCC1` [Compound 77, 3-methyl-7-t-butyl-9-(2,6,6-trimethyl-1-cyclohexen-1-yl)-2E,4E,6Z,8E-nonatetranoic acid], for which the Emax at 10 µM on RXRα (RXRα) came out at 75%; at RXRβ (RXRβ), 99%; at RARβ, 63%. Also, the pEC50 was 7.80 at RXRα (setting [1]), 7.96 at RXRβ (setting [2]) and 6.85 at RARβ.
`CC(/C=C/C=C(\c1ccc2c(c1)C(C)(C)CCC2(C)C)C(C)C)=C\C(=O)O` [Compound 123, (2E,4E,6Z)-7-(5,5,8,8-tetramethyl-5,6,7,8-tetrahydro-2-naphthyl)-3,8-dimethyl-nona-2,4,6-trienoic acid]: the results for the Emax at 10 µM on RXRα (RXRα), on RXRβ (RXRβ) and at RARβ were 90%, 105% and 55%, respectively. In addition, the figures for the pEC50 on RXRα (setting [1]), at RXRβ (setting [2]) and on RARβ were 7.62, 7.68 and 7.12, respectively.
In the case of `C=C(c1ccc(C(=O)O)cc1)c1cc2c(cc1Br)C(C)(C)CCC2(C)C` [3-Bromo-TTNEB, 4-[1-(3-bromo-5,5,8,8-tetramethyl-5,6,7,8-tetrahydro-2-naphthyl)ethenyl]benzoic acid], the results for the pEC50 at RXRα and at RXRβ were 7.19 and 7.27, respectively. The Emax on RXRα (CV-1, read-out: Efficacy) stood at 88%. In addition, the Emax at 10 µM on RARβ amounted to 18%.
`Cc1cc2c(cc1C(=O)c1ccc(C(=O)Nc3ccc(O)cc3)cc1)C(C)(C)CCC2(C)C` [3-Methyl-TTNCHBP, 4-[(3,5,5,8,8-pentamethyl-5,6,7,8-tetrahydro-2-naphthyl)carbonyl]-N-(4-hydroxyphenyl)benzamide]: the results for the Emax at 10 µM at RXRα (RXRα), at RXRβ (RXRβ) and on RARβ were 113%, 155% and 7%, respectively. In addition, the pEC50 on RXRα (setting [1]) is 5.96; at RXRβ (setting [2]), 5.96; on RARβ, below 5.00.
Consider `C=C(c1ccc(C(=O)Nc2ccc(O)cc2)cc1)c1cc2c(cc1C)C(C)(C)CCC2(C)C` [3-Methyl-TTNEHBP (63), 4-[1-(3,5,5,8,8-pentamethyl-5,6,7,8-tetrahydro-2-naphthyl)ethenyl]-N-(4-hydroxyphenyl)benzamide], for which the Emax at 10 µM came to 125% on RXRα (RXRα), 121% on RXRβ (RXRβ) and 25% at RARβ. In addition, the pEC50 was 6.85 at RXRα (setting [1]), 7.15 at RXRβ (setting [2]) and 5.72 on RARβ.
Consider `CC1=C(/C=C/C(=C\C=C\C(C)=C\C(=O)O)C(C)C)C(C)(C)CCC1` [Compound 75, 3-methyl-7-isopropyl-9-(2,6,6-trimethyl-1-cyclohexen-1-yl)-2E,4E,6Z,8E-nonatetranoic acid], for which the values for the Emax at 10 µM on RXRα (RXRα), at RXRβ (RXRβ) and at RARβ were 100%, 142% and 58%, respectively. The pEC50 was 7.68 at RXRα (setting [1]), 7.74 at RXRβ (setting [2]) and 6.74 on RARβ.
In the case of `CC(/C=C/C1(c2cc3c(cc2C)C(C)(C)CCC3(C)C)CC1)=C\C(=O)O` [Compound 104, (2E,4E)-3-methyl-5-[1-(3,5,5,8,8-pentamethyl-5,6,7,8-tetrahydro-2-naphthyl)cyclopropyl]penta-2,4-dienoic acid], the results for the Emax at 10 µM at RXRα (RXRα), at RXRβ (RXRβ) and at RARβ were 75%, 133% and 5%, respectively. The results for the pEC50 at RXRα (setting [1]), at RXRβ (setting [2]) and at RARβ were 8.30, 7.89 and below 5.00, respectively.
Take `CC1=C(/C=C/C2(C/C=C/C(C)=C/C(=O)O)CC2)C(C)(C)CCC1` [Compound 110]: the Emax at 10 µM at RXRα (RXRα) was determined as 79%; on RXRβ (RXRβ) it was 73%; on RARβ, 29%. The values for the pEC50 on RXRα (setting [1]), at RXRβ (setting [2]) and at RARβ were 7.07, 7.15 and 6.35, respectively.
